Experimental data as given in US11046709B2, “Fused 1,4-diazepines as BET bromodomain inhibitors” (THE REGENTS OF THE UNIVERSITY OF MICHIGAN, priority 2017, dated 2021).
Where two headings read alike, the source gives them in different places.

Experiments:
[1] = target: T1, recombinant BRD4 BD1 (Homo sapiens, UniProt O60885); experiment: Competitive fluorescence-polarization (FP) binding assay, BRD4 BD1
T1 construct: for recombinant BRD4 BD1 and BRD4 BD2 proteins
Procedure: (§1) Fluorescence Polarization (FP) competitive binding studies were carried out using a FAM labeled fluorescent probe, see, e.g., Cpd. No. 350 of US 2014/0256706, to determine binding affinities of representative Compounds of the Disclosure for recombinant BRD4 BD1 and BRD4 BD2 proteins. Equilibrium dissociation constants (Kd) values of the fluorescent probe to BRD4 BD1 and BD2 proteins were determined from protein saturation experiments by monitoring the total fluorescence polarization of mixtures composed with the fluorescent probe at a fixed concentration and proteins with increasing concentrations up to full saturation. Serial dilutions of testing proteins were mixed with the fluorescent probe to a final volume of 200 μl in the assay buffer (100 mM phosphate buffer, pH=6.5, 0.01% Triton X-100 (Sigma, 282103) being added right before assays). Final fluorescent probe concentration was 1.5 nM for both proteins. Plates were incubated at room temperature for 30 minutes with gentle shaking to assure equilibrium. FP values in millipolarization units (mP) were measured using the Infinite M-1000 plate reader (Tecan U.S., Research Triangle Park, N.C.) in Microfluor 1 96-well, black, round-bottom plates (Thermo Scientific, Waltham, Mass.) at an excitation wavelength of 485 nm and an emission wavelength of 530 nm. Kd values of the fluorescent probe, which were calculated by fitting the sigmoidal dose-dependent FP increases as a function of protein concentrations using Graphpad Prism 6.0 software (Graphpad Software, San Diego, Calif.), are 5.5 and 3.0 nM to BDR4 BD1 and 2, respectively.
(§2) The IC50 and Ki values of compounds were determined in a competitive binding experiment. See US 2014/0256706. Mixtures of 10 μl of the tested compounds in assay buffer with 40% Ethylene Glycol and 190 μl of preincubated protein/probe complex solution in the assay buffer (100 mM potassium phosphate, pH 6.5, 0.01% Triton X-100) were added into assay plates which were incubated at room temperature for 30 minutes with gentle shaking. Final concentrations of proteins were 10 and 6 nM in assays for BRD4 BD1 and BD2, respectively. Final probe concentration is 1.5 nM in both assays. Negative controls containing protein/probe complex only (equivalent to 0% inhibition), and positive controls containing only free probes (equivalent to 100% inhibition), were included in each assay plate. FP values were measured as described above. IC50 values were determined by nonlinear regression fitting of the competition curves. Instead of being calculated from IC50 values as described before. Ki values of competitive inhibitors were obtained directly by nonlinear regression fitting as well, based upon the Kd values of the probe to different proteins, and concentrations of the proteins and probes in the competitive assays (US 2014/0256706; Wang, FEBS Lett. 360:111 (1995); Zhang et al., Analytical Biochemistry, 331:138 (2004)).
(§3) Representative compounds in Table 5 were evaluated for their binding affinities to BRD4 BD1 and BD2 proteins using the Competitive Fluorescence-Polarization (FP) Assays described in Example 6, with the data included in Table 6.

[2] = target: T2, recombinant BRD4 BD2 (Homo sapiens, UniProt O60885); experiment: Competitive fluorescence-polarization (FP) binding assay, BRD4 BD2
T2 construct: for recombinant BRD4 BD1 and BRD4 BD2 proteins
Procedure: as §1, §2, §3

[3] = system: MDA-MB-231; experiment: Cell growth inhibition, 4-day proliferation assay, MDA-MB-231; assay type: cell-based; conditions: Homo sapiens
Summary of the method: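 WST-8 colorimetric read-out (absorbance 450 nm after 1-2 h) after 4-day compound exposure of 3,000-10,000 cells/well at 37 °C; IC50 from variable-slope sigmoid fit of DMSO-normalized signal.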

[4] = system: MOLM-13; experiment: Cell growth inhibition, 4-day proliferation assay, MOLM-13; assay type: cell-based; conditions: Homo sapiens
[5] = competitive FP, Table 6, read-out: IC50 as determinined in FP assays BRD4 BD1
[6] = competitive FP, Table 6, read-out: IC50 as determinined in FP assays BRD4 BD2
[7] = MDA-MB-231, WST-8 assay, Table 7, read-out: Cell growth inhibition (IC50 (nM)) MDA-MB-231
[8] = MOLM-13, WST-8 assay, Table 7, read-out: Cell growth inhibition (IC50 (nM)) MOLM-13
[9] = MOLM-13, 96 h, read-out: Cell IC50 (nM) MOLM13

Row | SMILES | IC50 [1] [nM] | IC50 [2] [nM] | IC50 ([3]; MDA-MB-231, read-out: Cell growth inhibition (IC50 (nM)) MDA-MB-231) [nM] | IC50 [1, 5] [nM] | IC50 [2, 6] [nM] | IC50 [3, 7] [nM] | IC50 [4, 8] [nM] | IC50 [4, 9] [nM]
1 | Cc1c(C#Cc2cnn(CCC(N)=O)c2)sc2c1C(c1ccc(Cl)cc1)=N[C@@H](C)c1nnc(C)n1-2 [Compound 103, (S)-3-(4-((4-(4-chlorophenyl)-3,6,9-trimethyl-6H-thieno[3,2-f][1,2,4]triazolo[4,3-a][1,4]diazepin-2-yl)ethynyl)-1H-pyrazol-1-yl)propanamide] | 4 | 15.4 | 60 ± 20 |  |  |  |  | 
2 | CNC(=O)CCn1cc(C#Cc2sc3c(c2C)C(c2ccc(Cl)cc2)=N[C@@H](C)c2nnc(C)n2-3)cn1 [Compound 104, (S)-3-(4-((4-(4-chlorophenyl)-3,6,9-trimethyl-6H-thieno[3,2-f][1,2,4]triazolo[4,3-a][1,4]diazepin-2-yl)ethynyl)-1H-pyrazol-1-yl)-N-methylpropanamide] |  |  |  | 4.9 | 45.1 | 40 ± 10 |  | 
3 | Cc1c(C#Cc2ccccn2)sc2c1C(c1ccc(Cl)cc1)=N[C@@H](CC(C)C)c1nnc(C)n1-2 [Compound 105, (S)-4-(4-chlorophenyl)-6-isobutyl-3,9-dimethyl-2-(pyridin-2-ylethynyl)-6H-thieno[3,2-f][1,2,4]triazolo[4,3-a][1,4]diazepine] |  |  |  | 33.9 | 26.5 | 400 ± 200 | 348 | 
4 | Cc1c(C#Cc2cccnc2)sc2c1C(c1ccc(Cl)cc1)=N[C@@H](CC(=O)OC(C)(C)C)c1nnc(C)n1-2 [Compound 111, tert-butyl (S)-2-(4-(4-chlorophenyl)-3,9-dimethyl-2-(pyridin-3-ylethynyl)-6H-thieno[3,2-f][1,2,4]triazolo[4,3-a][1,4]diazepin-6-yl)acetate] |  |  |  | 4.8 | 17 | 98.6 | 32.7 | 
5 | Cc1c(C#Cc2cccnc2)sc2c1C(c1ccc(Cl)cc1)=N[C@@H](CC(=O)O)c1nnc(C)n1-2 [Compound 112, (S)-2-(4-(4-chlorophenyl)-3,9-dimethyl-2-(pyridin-3-ylethynyl)-6H-thieno[3,2-f][1,2,4]triazolo[4,3-a][1,4]diazepin-6-yl)acetic acid] |  |  |  | 86.2 | 23 | 1860 | 644 | 
6 | Cc1c(C#Cc2cccnc2)sc2c1C(c1ccc(Cl)cc1)=N[C@@H](CC(N)=O)c1nnc(C)n1-2 [Compound 113, (S)-2-(4-(4-chlorophenyl)-3,9-dimethyl-2-(pyridin-3-ylethynyl)-6H-thieno[3,2-f][1,2,4]triazolo[4,3-a][1,4]diazepin-6-yl)acetamide] |  |  |  | 4.1 | 11.4 | 23.9 | 2.7 | 
7 | CCNC(=O)C[C@@H]1N=C(c2ccc(Cl)cc2)c2c(sc(C#Cc3cccnc3)c2C)-n2c(C)nnc21 [Compound 114, (S)-2-(4-(4-chlorophenyl)-3,9-dimethyl-2-(pyridin-3-ylethynyl)-6H-thieno[3,2-f][1,2,4]triazolo[4,3-a][1,4]diazepin-6-yl)-N-ethylacetamide] |  |  |  | 8.2 | 4.7 | 39.4 | 13.8 | 
8 | Cc1nnc(C[C@@H]2N=C(c3ccc(Cl)cc3)c3c(sc(C#Cc4ccccn4)c3C)-n3c(C)nnc32)o1 [Compound 129, (S)-2-((4-(4-chlorophenyl)-3,9-dimethyl-2-(pyridin-2-ylethynyl)-6H-thieno[3,2-f][1,2,4]triazolo[4,3-a][1,4]diazepin-6-yl)methyl)-5-methyl-1,3,4-oxadiazole] |  |  |  | 9.4 | 27.6 | 6 |  | 
9 | C#Cc1sc2c(c1C)C(c1ccc(Cl)cc1)=NCc1nnc(C)n1-2 [compound 19, 4-(4-chlorophenyl)-2-ethynyl-3,9-dimethyl-6H-thieno[3,2-f][1,2,4]triazolo[4,3-a][1,4]diazepine] | 191 | 227 |  |  |  |  |  | 2120
10 | C#Cc1sc2c(c1C)C(c1ccc(Cl)cc1)=N[C@@H](C)c1nnc(C)n1-2 [compound 20, (S)-4-(4-chlorophenyl)-2-ethynyl-3,6,9-trimethyl-6H-thieno[3,2-f][1,2,4]triazolo[4,3-a][1,4]diazepine] | 103 | 41.1 |  |  |  |  |  | 16
